How the values were obtained:
[1] = test system: Itch protein; assay: Western blot of Itch protein after siRNA transfection, Kelly cells; format: cell-based
Method: (§1) Transfection with LipofectAMINE 2000: one day before transfection, cells were plated at 8×10^4 cells per well for 24-well plate or 1.5×10^5 cells per well for 6-well plate in culture medium. On the day of transfection, LipofectAMINE 2000 (Thermal Fisher) or ITCH/Irrelevant siRNA (Eurogentec) was pre-diluted in OptiMEM (Thermal Fisher) with various concentrations and mixed to form complexes at room temperature (RT) for 25 min before adding to cells. mRNAs or protein lysates were collected 72 hours after transfection for further analysis.
[…] 100 μl of lysis buffer was added to each well of the 6-well plate, and left on ice for 10 minutes. Samples were collected and boiled for 3 minutes and then centrifuged at 14,000 g for 10 minutes at 4° C. The supernatants were stored at −80° C. until needed. 30 μl/well of each sample were loaded onto NuPAGE Novex 10% bis-Tris Gel, and run at a constant voltage of 150V for 1 hour, before being transferred to a nitrocellulose membrane at 300 mA for 2 hours. The membrane was then blocked with Odyssey block solution (LI-COR Biosciences) for 60 min, incubated by primary antibodies of mouse anti-ITCH antibody (1:2000, BD) or rabbit anti-TP73 (1:1000, Generon), and mouse anti-beta actin (1:5000, Sigma) overnight at 4° C. […]

[2] = test system: ITCH mRNA; assay: ITCH mRNA knockdown by qPCR after LipofectAMINE 2000 transfection, Kelly cells; format: cell-based
Method: as §1
(§2) Real-time PCR: cDNA from each mRNA sample was synthesized using superscript III first strand synthesis kit (Thermal Fisher). To determine the ITCH expression, real time PCR was performed using SYBR-green qPCR kit (Eurogentec), using beta-actin or SDHA (sequence details as above) as endogenous control. The qPCR was run using either StepOne plus qPCR machine (Thermal Fisher) or CFX96 qPCR system (Bio-Rad). Results were analysed using their corresponding software.
(§3) To determine ITCH silencing in neuroblastoma cells in vitro, neuroblastoma cells were transfected with ITCH siRNA, using LipofectAMINE 2000 as the transfection reagent. Cells were transfected with either, a) ITCH siRNA (6.25 nM to 100 nM) using 2 μl/well LipofectAMINE 2000 or b) Different amounts of LipofectAMINE2000 (0.5 μl/well, 1 μl/well and 2 μl/well) with 100 nM ITCH siRNA for 4 hours in OptiMEM, and then change into complete medium for a further 72 hours.
(§4) The ITCH mRNA levels were determined by qPCR, and cells transfected with irrelevant siRNA were used as the control.

[3] = test system: TP73; assay: Western blot of TP73 after ITCH siRNA transfection, Kelly cells; format: cell-based; settings: LipofectAMINE2000, samples at 1, 2, 3, 6 days and D6+3, western blot normalized to β-actin
Method: […] 100 μl of lysis buffer was added to each well of the 6-well plate, and left on ice for 10 minutes. Samples were collected and boiled for 3 minutes and then centrifuged at 14,000 g for 10 minutes at 4° C. The supernatants were stored at −80° C. until needed. 30 μl/well of each sample were loaded onto NuPAGE Novex 10% bis-Tris Gel, and run at a constant voltage of 150V for 1 hour, before being transferred to a nitrocellulose membrane at 300 mA for 2 hours. The membrane was then blocked with Odyssey block solution (LI-COR Biosciences) for 60 min, incubated by primary antibodies of mouse anti-ITCH antibody (1:2000, BD) or rabbit anti-TP73 (1:1000, Generon), and mouse anti-beta actin (1:5000, Sigma) overnight at 4° C. After washing with PBS (phosphate-buffered saline) containing 1% Tween 20 (PBST) for 15 min×3 times at room temperature, the membrane was then incubated with IRDye 680 RD goat anti-rabbit and IRDye 800 CW goat anti-mouse 2nd antibodies (1:15000, LI-COR Biosciences) for 1 hour at RT. The image of the blotted membrane was acquired by Odyssey Clx infrared imaging system (LI-COR Biosciences) using image studio software.
Kelly cells were transfected with ITCH siRNA or irrelevant siRNA in 6-well plates using LipofectAMINE2000. The protein samples were collected 1 day, 2 days, 3 days and 6 days after transfection. […]

[4] = test system: Kelly cells; assay: SubG1 analysis (apoptosis) of transfected Kelly cells after 4 Gy irradiation; format: cell-based; settings: 4 Gy irradiation three days after transfection, analysed one day after irradiation
Method: SubG1 analysis: to examine the effects of ITCH silencing on the apoptosis of neuroblastoma cells upon irradiation, Kelly cells were firstly transfected with ITCH siRNA as described above, using irrelevant siRNA as control. Cells were exposed to 4 Gy irradiation three days after transfection. 24 hours after irradiation, cells were trypsinized and centrifuged at 2000 rpm, for 5 min. Pre-cold 70% ethanol was then added dropwise to cell pellet, and the cells were fixed at 4° C. for 30 min before centrifuge again and the cell pellet washed with citric buffer twice before adding 50 μl RNase followed by 50 μg/ml PI (propidium iodide) for 5 min. The cells were then pelleted again at 2000 rpm for 5 min, and re-suspended in 0.5 ml PBS for FACS (fluorescent associated cell sorting) analysis. The cell cycle profile was acquired using FACS calibur machine and the percentage of cells in the SubG1 region was calculated using Flowjo software.
Kelly cells were transfected with ITCH and irrelevant siRNA, respectively. Three days later, cells were subjected to 4 Gy irradiation. The subG1 population was analysed one day after the irradiation. […] This difference was statistically significant between the 2 groups (p<0.001, Mann-Whitney test).

[5] = test system: Itch protein; assay: Western blot of Itch protein after siRNA transfection, BE2 cells; format: cell-based; settings: 72 hours after transfection, in comparison to irrelevant siRNA treated cells
Method: as §1
Western blot: 72 hours after transfection, protein was extracted in RIPA (Radio-Immunoprecipitation Assay) lysis buffer (Sigma) containing a complete protease inhibitor cocktail (1:100, Roche). 100 μl of lysis buffer was added to each well of the 6-well plate, and left on ice for 10 minutes. Samples were collected and boiled for 3 minutes and then centrifuged at 14,000 g for 10 minutes at 4° C. The supernatants were stored at −80° C. until needed. 30 μl/well of each sample were loaded onto NuPAGE Novex 10% bis-Tris Gel, and run at a constant voltage of 150V for 1 hour, before being transferred to a nitrocellulose membrane at 300 mA for 2 hours. […]

[6] = test system: ITCH mRNA; assay: In vivo silencing of ITCH in neuroblastoma (Kelly) xenograft tumours, real time RT-PCR; set-up: species or system mouse; settings: for Differences in % (ITCH SiRNA vs Irre SiRNA), relative ITCH expression <0.8 / Differences in % (ITCH SiRNA vs Irre SiRNA), relative ITCH expression <1 / % of samples with relative ITCH expression <0.8 / % of samples with relative ITCH expression <1 / Number of samples with relative ITCH expression <0.8 / Number of samples with relative ITCH expression <1: 24 h after injection; for % of samples with relative ITCH expression <0.8 / % of samples with relative ITCH expression <1 / Number of samples with relative ITCH expression <0.8 / Number of samples with relative ITCH expression <1: n number 24; for more samples expressing lower level of ITCH (relative expression <0.8) in treated group than in control group: 48 h after delivery; for ITCH silencing: 48 hours after delivery, vs irrelevant siRNA group; for Relative expression of ITCH/SDHA (mean ± SEM) / Relative expression of ITCH/β-actin (mean ± SEM): xenograft tumours
Method: Establishment of the xenograft neuroblastoma model and in vivo transfection of ITCH siRNA with nanoparticles: 6-8 week old NSG-SCID female mice were ordered from Charles River laboratories. All procedures were approved by UCL animal care policies and were carried out under Home Office Licenses issued in accordance with the United Kingdom Animals (Scientific Procedures) Act 1986 (UK). The mice were acclimatized for 1-2 weeks before engrafting the neuroblastoma cells. On the day of injection, Kelly cells were trypsinized and re-suspended in medium at a density of 3×10^6 cells/100 μl. 100 μl cell suspension was mixed with equal volume of Matrigel (BD biosciences) on ice and immediately injected subcutaneously into the left or right upper thigh of the mouse. The body weight and the tumour size/volume of each mouse were monitored from D4 after engraftment. The in vivo administration of the ITCH siRNA nanoparticles was performed on mouse once its tumour grew bigger than 5mm at both dimensions. The nanoparticle formulation for in vivo study was also prepared at the 1:4:1 ratio, using cationic lipid AT-1, which contains 1% PEG and the peptide used was ME27. 1 mg siRNA/kg of nanoparticles was injected intravenously into each mouse. The tumour was harvested either 24 hours or 48 hours after administration, and processed for qPCR analysis.
Real time RT-PCR analysis of tumour samples: each tumour was divided into 4 parts and mRNA was extracted respectively for real time RT-PCR analysis. iTaq Universal SYBR Green One-Step Kit was used in this assay. For normalization, 2 separate housekeeping genes, beta-actin and SDHA (Fisher M, 2005) were included. As there were in total 104 samples to test, it was not possible to fit all samples in a single 96 well testing plate. Therefore, sample 05 c was chosen, from an untreated tumour sample as a common control. This sample was included in every plate that was run and all the data from each plate were calculated relative to this sample (the ddCT value of each sample was calculated by subtracting the deICT value of sample 05 c).

[7] = test system: ITCH mRNA; assay: ITCH mRNA knockdown by qPCR after LipofectAMINE 2000 transfection, BE2 cells; format: cell-based
Method: as §1, §2, §3, §4

[8] = 6.25 nM siRNA, 2 μl/well LipofectAMINE 2000, qPCR, control irrelevant siRNA
[9] = 12.5 nM siRNA, 2 μl/well LipofectAMINE 2000, qPCR, control irrelevant siRNA
[10] = 25 nM siRNA, 2 μl/well LipofectAMINE 2000, qPCR, control irrelevant siRNA
[11] = 50 nM siRNA, 2 μl/well LipofectAMINE 2000, qPCR, control irrelevant siRNA
[12] = 100 nM siRNA, 2 μl/well LipofectAMINE 2000, qPCR, control irrelevant siRNA
[13] = 24 hours after i.v. 1 mg siRNA/kg nanoparticles (AT-1, ME27)
[14] = 48 hours after i.v. 1 mg siRNA/kg nanoparticles (AT-1, ME27)

Substance: ITCH siRNA: siRNA, sense strand 5′-GCUGUUGUUUGCCAUAGAA55-3′ (SEQ ID NO 003), antisense strand 5′-UUCUAUGGCAAACAACAGC55-3′ (SEQ ID NO 004) (Eurogentec) (listed as RNA, chemistry not given here)
- remaining Itch protein level ([1]; 72 hours after transfection, western blot, in comparison to non-transfected cells): 31.6%
- Itch protein level, time course ([1]; LipofectAMINE2000, 1 day to 6 days after the 1st transfection, vs irrelevant siRNA, normalized to β-actin): downregulation of Itch protein was observed
- ITCH knockdown [2, 8]: 64.7%
- ITCH knockdown [2, 9]: 77.8%
- ITCH knockdown [2, 10]: 73.5%
- ITCH knockdown [2, 11]: 89%
- ITCH knockdown ([2]; 100nM SiRNA, 0.5 μl/well LipofectAMINE 2000): 85%
- ITCH knockdown ([2]; 100nM SiRNA, 1 μl/well LipofectAMINE 2000): 83%
- ITCH knockdown ([2]; 100nM SiRNA, 2 μl/well LipofectAMINE 2000 (LipofectAMINE amount series)): 78.8%
- ITCH knockdown [2, 12]: 78%
- TP73 protein level, time course [3]: upregulation was only detected at day 3 samples and day 6 samples which had been transfected twice
- percentage of SubG1 (apoptotic) cells [4]: 8.36%
- changes in Itch protein level [5]: no changes
- Differences in % (ITCH SiRNA vs Irre SiRNA), relative ITCH expression <0.8 ([6]; normalized to SDHA): 12.5%
- Differences in % (ITCH SiRNA vs Irre SiRNA), relative ITCH expression <1 ([6]; normalized to SDHA): 4.17%
- % of samples with relative ITCH expression <0.8 ([6]; normalized to SDHA): 25%
- % of samples with relative ITCH expression <1 ([6]; normalized to SDHA): 41.67%
- Number of samples with relative ITCH expression <0.8 ([6]; normalized to SDHA): 6
- Number of samples with relative ITCH expression <1 ([6]; normalized to SDHA): 10
- Differences in % (ITCH SiRNA vs Irre SiRNA), relative ITCH expression <0.8 ([6]; normalized to β-actin): −16.67%
- Differences in % (ITCH SiRNA vs Irre SiRNA), relative ITCH expression <1 ([6]; normalized to β-actin): 8.33%
- % of samples with relative ITCH expression <0.8 ([6]; normalized to β-actin): 16.67%
- % of samples with relative ITCH expression <1 ([6]; normalized to β-actin): 45.83%
- Number of samples with relative ITCH expression <0.8 ([6]; normalized to β-actin): 4
- Number of samples with relative ITCH expression <1 ([6]; normalized to β-actin): 11
- more samples expressing lower level of ITCH (relative expression <0.8) in treated group than in control group ([6]; normalized to SDHA): 35%
- more samples expressing lower level of ITCH (relative expression <0.8) in treated group than in control group ([6]; normalized to β-actin): 27.14%
- ITCH silencing ([6]; normalized to SDHA): 14.6%
- ITCH silencing ([6]; normalized to β-actin): 19.15%
- ITCH silencing (summary) ([6]; neuroblastoma xenograft model, nanoparticles, 48 hours after transfection): 15-20%
- Relative expression of ITCH/SDHA (mean ± SEM) [6, 13]: 1.18 ± 0.10
- Relative expression of ITCH/β-actin (mean ± SEM) [6, 13]: 1.05 ± 0.06
- Relative expression of ITCH/SDHA (mean ± SEM) [6, 14]: 0.82 ± 0.05
- Relative expression of ITCH/β-actin (mean ± SEM) [6, 14]: 0.76 ± 0.05
- ITCH knockdown [7, 8]: -39%
- ITCH knockdown [7, 9]: 54%
- ITCH knockdown [7, 10]: 48.7%
- ITCH knockdown [7, 11]: 71.8%
- ITCH knockdown ([7]; 100 nM siRNA, 0.5 μl/well LipofectAMINE 2000): 88.7%
- ITCH knockdown ([7]; 100 nM siRNA, 1 μl/well LipofectAMINE 2000): 49%
- ITCH knockdown ([7]; 100 nM siRNA, 2 μl/well LipofectAMINE 2000 (LipofectAMINE amount series)): 34%
- ITCH knockdown [7, 12]: 38.2%
